{"source": "patent US11421278B2", "about": "“Method to monitor pharmacodynamic responses mediated by in vivo administration of glucocorticoids” (BRISTOL-MYERS SQUIBB COMPANY, priority 2017, dated 2022)", "key": {"[1]": {"system": "peripheral blood mononuclear cells (PBMCs)", "assay": "Gene expression profiling of PBMCs cultured with prednisolone or DMSO (Affymetrix)", "assay_type": "cell-based, human", "settings": "1 μM prednisolone, 6 hours", "procedure": "In order to monitor glucocorticoid-dependent responses in peripheral blood, genes modulated by prednisolone in human PBMCs were identified. PBMCs from 10 independent normal healthy volunteer donors were treated with either DMSO control or 1 μM prednisolone for 6 hours.\nLymphocytes were isolated from the blood of 10 independent donors using Ficoll gradient centrifugation. Cells were cultured at 5 million lymphocytes/well of a 96-well flat-bottom block plate (Qiagen, Hilden, Germany) in 500 μl assay media (RPMI-1640 with GlutaMAX, 10% charcoal-stripped fetal bovine serum; Gibco Laboratories, Gaithersburg, Md., USA). Cells were cultured for 6 hours with either dimethyl sulfoxide (DMSO) vehicle or 1 μM prednisolone. After 6 hours, cells were pelleted and resuspended in 1 ml nucleic acid purification lysis solution (Applied Biosystems, Foster City, Calif., USA) diluted 1:2 with calcium and magnesium-free phosphate-buffered saline (Invitrogen, Carlsbad, Calif., USA). Cells were incubated in lysis buffer for 10 min at room temperature followed by storage at −80° C. RNA was isolated using the Qiagen RNeasy isolation kit according to manufacturer's instructions. […]"}, "whole blood": {"system": "whole blood", "assay": "Whole blood cultured in vitro, GC gene signature (ssGSEA) score", "assay_type": "cell-based, human", "excerpt": "Many of these genes were known glucocorticoid-regulated genes (Chinenov Y, et. al., BMC Genomics 2014; 15:656). […] Network analysis of the regulated genes indicated enrichment for immune-response pathways. Single-sample gene set enrichment analysis (ssGSEA) algorithm was used to generate a composite score (or gene signature) for enrichment of these genes in the transcriptomes of individual samples (Barbie D A, et. al. Nature 2009; 462:108-12).\nFor profiling of whole blood, anticoagulant citrate dextrose solution A-containing whole blood from 4 normal healthy volunteers was cultured with either DMSO vehicle, 200 nM prednisolone, 1 μM prednisolone, 5 μM prednisolone, 5 μM GR modulators BMS-791826, or 10 μM BMS-776532 for 5 hours, followed by transfer to a PAXgene tube. Total RNA was isolated, and then treated with DNase I and cleaned up using a Qiagen RNeasy MinElute Cleanup Kit. RNA concentrations were determined using NanoDrop (Thermo Fisher Scientific, Waltham, Mass., USA) and RNA quality was evaluated using the Experion electrophoresis system (Bio-Rad Laboratories, Hercules, Calif., USA). All target labeling reagents were purchased from Affymetrix (West Sacramento, Calif., USA).\nDouble-stranded cDNAs were synthesized from 1 μg of total RNA through reverse transcription with an oligo-dT primer containing the T7 RNA polymerase promoter and double-strand conversion using the cDNA Synthesis System (Invitrogen, Carlsbad, Calif., USA). Biotin-labeled cRNA was generated from the cDNA and used to probe a Human Genome HT_HG-U133A plate (Affymetrix, Sunnyvale, Calif., USA), consisting of 96 single HG-U133A arrays in a 96-well plate. All cDNA and cRNA target preparation steps were processed on a Caliper GeneChip Array Station from Affymetrix. Array hybridization, washing, and scanning were performed according to the manufacturer's recommendations. […]"}, "[2]": {"system": "GC gene signature in whole blood", "assay": "In vivo GC gene signature, Prednisoline in Healthy Male Cohort 2", "parameters": "species or system human", "settings": "normal healthy volunteers, oral, 10 mg prednisolone or 150 or 300 mg BMS-791826, 4 hours post-dosing, versus pre-dose and placebo (FIG. 3A)", "procedure": "(§1) Since the glucocorticoid (GC) signature accurately captured glucocorticoid receptor (GR) agonist activity in vitro, the behavior of the GC gene signature in vivo was tested. Normal healthy volunteers (NHV) were dosed with placebo, 10 mg prednisolone, or 150 or 300 mg GR modulator BMS-791826. Blood was drawn before and 4 hours post-dosing, and RNA was analyzed by Affymetrix gene expression profiling. […] To address the kinetics of the GC gene signature response, whole blood RNA profiles from NHVs who were administered different doses of prednisolone was analyzed. […] For all but the highest dose of prednisolone, GC gene signature scores had returned to baseline levels by 8 hours post-dose. The signature score was at baseline levels in all groups by 48 hours post-dosing.\nTo score an individual sample by the enrichment level of GC gene signatures, we adapted the single-sample gene set enrichment analysis (ssGSEA) algorithm (Barbie D A, et. al., Nature 2009; 462:108-12) to generate a composite score, which was implemented using the Gene Set Variation Analysis package in R (version 3.4.0, Hanzelmann S, et. al., BMC Bioinformatics 2013; 14:7). The algorithm was modified so that enrichment scores fell between −1 and 1, representing the lowest to the highest possible rankings of GC genes in the transcriptome. […]"}, "[3]": {"system": "GC gene signature in whole blood", "assay": "In vivo GC gene signature kinetics, Prednisoline in Healthy Male Cohort 1", "parameters": "species or system human", "procedure": "as §1\nTo score an individual sample by the enrichment level of GC gene signatures, we adapted the single-sample gene set enrichment analysis (ssGSEA) algorithm (Barbie D A, et. al., Nature 2009; 462:108-12) to generate a composite score, which was implemented using the Gene Set Variation Analysis package in R (version 3.4.0, Hanzelmann S, et. al., BMC Bioinformatics 2013; 14:7). The algorithm was modified so that enrichment scores fell between −1 and 1, representing the lowest to the highest possible rankings of GC genes in the transcriptome.\nMale normal healthy volunteers were randomly assigned (6 participants/group) to receive daily doses of 5, 10, or 30 mg prednisolone for 7 days. Two participants received placebo. PAXgene tubes were collected before dosing and at 2, 4, 8, 48, 144, and 216 hours post-dose."}, "[4]": {"system": "glucocorticoid-regulated genes in whole blood", "assay": "Whole blood induction of single genes, prednisolone versus placebo, Prednisoline in Healthy Male cohort 2", "assay_type": "in vivo, human", "excerpt": "Further refinement of the 64 member gene signature would facilitate implementation in the clinic. […] The list was further filtered for detectable expression in the abatacept SLE trial. Of the initial 64 genes, 18 (FKBP5, ECHDC3, IL1R2, ZBTB16, IRS2, IRAK3, ACSL1, DUSP1, PHC2, TLR2, TSC22D3, SLA, CRISPLD2, MAN2A2, FAR2, CEBPD, SPTLC2, HSPA6) met these criteria. The top 3 genes (FKBP5, ECHDC3 and IL1R2), top 6 genes (FKBP5, ECHDC3 IL1R2, ZBTB16, IRS2, IRAK3) and top 8 genes (FKBP5, ECHDC3, IL1R2, ZBTB16, IRS2, IRAK3, ACSL1, DUSP1) from the list were then used to calculate ssGSEA scores.\nCEL files from the Affymetrix Array Station were processed and normalized using the Robust Multi-Array Average (RMA) algorithm (Gautier I, et. al., Bioinformatics 2004; 20:307-15) using the “Affy” package in R (version 3.2.1; 16) and Bioconductor (Gentleman R C, et. al. Genome Biol. 2004, 5 (10):R80) with custom CDF files from BrainArray (version 18.0.0; Dai M, et. al., Nucleic Acids Res 2005; 33:e175). Differential gene expression analysis was run to compare gene expression levels in prednisolone-treated versus control samples, using a moderated t-test (Ritchie M E, et. al., Nucleic Acids Res 2015; 43:e47) in Array Studio (OmicSoft, Cary, N.C., USA). P values were adjusted using the multiple test correction method which is also called false discovery rate (FDR, Benjamini Y, et. al., J. Royal Statistical Soc., Series B 1995; 57:289).\nMale normal healthy volunteers were randomly assigned to receive either a placebo of polyethylene glycol (PEG)-400 solution (4 participants); a single daily oral dose of GR modulator BMS-791826 (150 or 300 mg) as a PEG-400 solution (6 participants/dose); or a single daily dose of 10 mg prednisolone (4 participants) for 3 consecutive days. PAXgene tubes were collected before dosing and at 4 hours post-dose on day 1."}, "[5]": {"system": "GC gene signature in whole blood", "assay": "GC gene signature in baseline samples of the abatacept SLE phase II trial by reported prednisone dose", "assay_type": "in vivo, human", "settings": "SLE patients, dose high (>30 mg), medium (10-30 mg), low (<10 mg) (FIG. 4B)", "procedure": "To determine if the glucocorticoid signature could differentiate between patients based on treatment status, expression of the signature in cross-sectional cohorts of patients with SLE or RA were analyzed. Relative to either normal healthy controls or patients treated with other standard-of-care medications, the patients with SLE or RA who were prescribed glucocorticoids had elevated signature scores (FIG. 4A). While the glucocorticoid signatures were elevated, there was significant inter-patient variability in the signature scores. Baseline samples from a phase II study of abatacept in SLE was analyzed (Fleishaker D L, et. al., BMC Musculoskelet Disord 2016; 17:29) for expression of the glucocorticoid gene signature (FIG. 4B). […] However, there was again significant inter-patient variability in glucocorticoid gene signature scores in all groups. This could reflect steroid resistance in some patients or compliance issues with some patients.\nBaseline PAXgene collections and complete blood counts were obtained from 144 adults with SLE meeting the criteria of a British Isles Lupus Assessment Group (BILAG) score of A or B. The population at baseline consisted of 53% of patients with polyarthritis, 35% with discoid lupus, and 12% with serositis. […]"}}, "data": [{"smiles": "C[C@]12C=CC(=O)C=C1CC[C@@H]1[C@@H]2[C@@H](O)C[C@@]2(C)[C@H]1CC[C@]2(O)C(=O)CO", "note": "[prednisolone]", "values": [{"measurement": "fold change of upregulated genes versus vehicle", "setting": "[1]; FDR-adjusted P ≤0.05, genes of FIG. 1A", "result": "> 2", "unit": "fold"}, {"measurement": "fold change of downregulated genes versus vehicle", "setting": "[1]; FDR-adjusted P ≤0.05, genes of FIG. 1B", "result": "> 2", "unit": "fold"}, {"measurement": "glucocorticoid gene signature score, rank order", "setting": "whole blood; 5 μM prednisolone, 5 μM BMS-791826, 10 μM BMS-776532, 5 hours (FIG. 2E)", "result": "prednisolone>BMS-791826>BMS-776532"}, {"measurement": "ssGSEA score for the upregulated genes", "setting": "whole blood; whole blood, different concentrations of prednisolone, 5 hours (FIG. 1C)", "result": "increased dose dependently"}, {"measurement": "expression of the downregulated genes (ssGSEA score)", "setting": "whole blood; whole blood, different concentrations of prednisolone, 5 hours (FIG. 1D)", "result": "decreased in a dose-dependent manner"}, {"measurement": "GC signature score", "setting": "[2]", "result": "significantly elevated"}, {"measurement": "time of peak of GC gene signature score post-dose", "setting": "[3]; 5, 10 or 30 mg prednisolone", "result": 4, "unit": "h"}, {"measurement": "time by which GC gene signature scores had returned to baseline", "setting": "[3]; all but the highest dose of prednisolone", "result": "≤ 8", "unit": "h"}, {"measurement": "time by which signature score was at baseline levels", "setting": "[3]; all groups", "result": "≤ 48", "unit": "h"}, {"measurement": "GC gene signature score, dose dependence", "setting": "[3]; normal healthy volunteers, 5, 10 or 30 mg prednisolone (FIG. 3B)", "result": "increased dose dependently"}, {"measurement": "logFC ACSL1", "setting": "[4]", "result": 1.43}, {"measurement": "logFC CEBPD", "setting": "[4]", "result": 0.86}, {"measurement": "logFC CRISPLD2", "setting": "[4]", "result": 0.94}, {"measurement": "logFC DUSP1", "setting": "[4]", "result": 1.37}, {"measurement": "logFC ECHDC3", "setting": "[4]", "result": 2.34}, {"measurement": "logFC FAR2", "setting": "[4]", "result": 0.88}, {"measurement": "logFC FKBP5", "setting": "[4]", "result": 2.85}, {"measurement": "logFC HSPA6", "setting": "[4]", "result": 0.67}, {"measurement": "logFC IRAK3", "setting": "[4]", "result": 1.45}, {"measurement": "logFC IRS2", "setting": "[4]", "result": 1.75}, {"measurement": "logFC MAN2A2", "setting": "[4]", "result": 0.91}, {"measurement": "logFC PHC2", "setting": "[4]", "result": 1.15}, {"measurement": "logFC SLA", "setting": "[4]", "result": 0.98}, {"measurement": "logFC SPTLC2", "setting": "[4]", "result": 0.75}, {"measurement": "logFC TLR2", "setting": "[4]", "result": 1.11}, {"measurement": "logFC TSC22D3", "setting": "[4]", "result": 1.08}, {"measurement": "logFC ZBTB16", "setting": "[4]", "result": 2.04}]}, {"smiles": "C[C@]12C=CC(=O)C=C1CC[C@@H]1[C@@H]2C(=O)C[C@@]2(C)[C@H]1CC[C@]2(O)C(=O)CO", "note": "[prednisone]", "values": [{"measurement": "glucocorticoid gene signature scores versus reported dose", "setting": "[5]", "result": "generally aligned well with reported prednisone dose"}]}]}
